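1) Cells in 96-well plates. 2) Compound, 48 h, 5 concentrations. 3) Linear interpolation between surrounding doses. 4) Unreached endpoint = highest concentration. GI50: concentration for 50% inhibition of growth.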 Active and inactive are the calls of the source. No stated cut-off is given here; in the data, active = GI50 up to about 1.1 µM and inactive = higher.
Columns and labels:
Test in all cases: NCI-60 cell line screen, 48 h
ACHN = system: ACHN
K562 = system: K562
SW-620 = system: SW-620
NCI/ADR-RES = system: NCI/ADR-RES
HT-29 = system: HT-29
LOX IMVI = system: LOX IMVI
PC-3 = system: PC-3
SNB-19 = system: SNB-19
HL-60 = system: HL-60
SK-MEL-2 = system: SK-MEL-2
A549 = system: A549
CCRF-CEM = system: CCRF-CEM
NCI-H460 = system: NCI-H460
U-251 = system: U-251
MDA-N = system: MDA-N
M14 = system: M14
MDA-MB-435 = system: MDA-MB-435
NCI-H23 = system: NCI-H23
RPMI-8226 = system: RPMI-8226
SNB-75 = system: SNB-75

Row | Compound | GI50 (ACHN) | GI50 (K562) | GI50 (SW-620) | GI50 (NCI/ADR-RES) | GI50 (HT-29) | GI50 (LOX IMVI) | GI50 (PC-3) | GI50 (SNB-19) | GI50 (HL-60) | GI50 (SK-MEL-2) | GI50 (A549) | GI50 (CCRF-CEM) | GI50 (NCI-H460) | GI50 (U-251) | GI50 (MDA-N) | GI50 (M14) | GI50 (MDA-MB-435) | GI50 (NCI-H23) | GI50 (RPMI-8226) | GI50 (SNB-75)
1 | O=C1c2cccc3cc([N+](=O)[O-])cc(c23)C(=O)N1O | 28.1 µM (inactive) | 36.8 µM (inactive) | 38.2 µM (inactive) | 40.8 µM (inactive) | 31 µM (inactive) | 25.9 µM (inactive) | 43.5 µM (inactive) | 43.9 µM (inactive) | > 100 µM (inactive) | 32.4 µM (inactive) | 33.6 µM (inactive) | 27 µM (inactive) | 27.2 µM (inactive) | 41.8 µM (inactive) | 47 µM (inactive) | 39.2 µM (inactive) | 34.3 µM (inactive) | 30.8 µM (inactive) | 19.4 µM (inactive) | –
2 | Cc1cc(=O)n2nc(SCc3ccccc3)sc2n1 | 22.8 µM (inactive) | 18.2 µM (inactive) | > 100 µM (inactive) | > 100 µM (inactive) | > 100 µM (inactive) | 77.4 µM (inactive) | > 100 µM (inactive) | > 100 µM (inactive) | > 100 µM (inactive) | – | > 100 µM (inactive) | > 100 µM (inactive) | > 100 µM (inactive) | > 100 µM (inactive) | > 100 µM (inactive) | > 100 µM (inactive) | 66.4 µM (inactive) | > 100 µM (inactive) | > 100 µM (inactive) | > 100 µM (inactive)
3 | CC1=NN(c2cccc(Cl)c2)C2(SCC(=O)N2c2nc3ccccc3s2)/C1=C\c1ccc(Cl)cc1 (stereo not given) | 19.2 µM (inactive) | 14.4 µM (inactive) | 14.4 µM (inactive) | 38.8 µM (inactive) | 19.4 µM (inactive) | 20.8 µM (inactive) | 15.7 µM (inactive) | – | 11.8 µM (inactive) | 16.7 µM (inactive) | – | 0.272 µM (active) | 15.8 µM (inactive) | 13.8 µM (inactive) | 25.7 µM (inactive) | 19.8 µM (inactive) | 19.9 µM (inactive) | 18.4 µM (inactive) | 15.6 µM (inactive) | –
4 | Cn1/c(=N\N=C(\CNCCO)[C@@H](O)[C@@H]2OC(c3ccccc3)OC[C@H]2O)sc2ccccc21 (stereo not given in full) | 19.9 µM (inactive) | 14.8 µM (inactive) | 18 µM (inactive) | 50.7 µM (inactive) | 18.6 µM (inactive) | 15.1 µM (inactive) | 16.6 µM (inactive) | 12.8 µM (inactive) | – | 17.7 µM (inactive) | 15.8 µM (inactive) | 17.8 µM (inactive) | 21.5 µM (inactive) | 17.3 µM (inactive) | 17.6 µM (inactive) | 13.2 µM (inactive) | 17.9 µM (inactive) | 20 µM (inactive) | – | 16 µM (inactive)
5 | C=CCC1(O)c2cccc(O)c2C(=O)c2c(O)cccc21 | 32.5 µM (inactive) | 21 µM (inactive) | 31.6 µM (inactive) | 18.9 µM (inactive) | 22.6 µM (inactive) | 20.9 µM (inactive) | 26 µM (inactive) | – | 20.5 µM (inactive) | 17.3 µM (inactive) | 24 µM (inactive) | – | 31.8 µM (inactive) | 23.6 µM (inactive) | 9.93 µM (inactive) | 20.8 µM (inactive) | 9.51 µM (inactive) | 24.7 µM (inactive) | 31.7 µM (inactive) | 21.1 µM (inactive)
6 | O=C(Nc1ccc2ncccc2c1)c1cc2c(cc1Cl)Sc1nccn1S2(=O)=O | 31.2 µM (inactive) | 6.31 µM (inactive) | 16 µM (inactive) | 19 µM (inactive) | 16.7 µM (inactive) | 12.9 µM (inactive) | 33.6 µM (inactive) | 16.4 µM (inactive) | 9.27 µM (inactive) | 17.3 µM (inactive) | 17.5 µM (inactive) | – | 15.7 µM (inactive) | 13.6 µM (inactive) | 5.56 µM (inactive) | 15.1 µM (inactive) | 4 µM (inactive) | 15.6 µM (inactive) | 6.85 µM (inactive) | 15.3 µM (inactive)
7 | CC(C)c1cc(CN(C)C)c(O)c(C(C)(C)C)c1 | 16.8 µM (inactive) | – | 20.2 µM (inactive) | 65.3 µM (inactive) | 36.2 µM (inactive) | 17.4 µM (inactive) | 21.6 µM (inactive) | 23.6 µM (inactive) | 6.04 µM (inactive) | 18.1 µM (inactive) | 23.2 µM (inactive) | 16.4 µM (inactive) | 17.3 µM (inactive) | 16.4 µM (inactive) | 26.6 µM (inactive) | 28.4 µM (inactive) | 36.3 µM (inactive) | 34.7 µM (inactive) | 13.9 µM (inactive) | –
8 | CC#CC#C/C=C1/C=CC2(CCCCO2)O1 (stereo not given) | – | 40.2 µM (inactive) | > 100 µM (inactive) | > 100 µM (inactive) | > 100 µM (inactive) | 90.2 µM (inactive) | > 100 µM (inactive) | 40.6 µM (inactive) | 19.5 µM (inactive) | > 100 µM (inactive) | > 100 µM (inactive) | 21.2 µM (inactive) | > 100 µM (inactive) | > 100 µM (inactive) | > 100 µM (inactive) | > 100 µM (inactive) | > 100 µM (inactive) | > 100 µM (inactive) | – | > 100 µM (inactive)
9 | COC(=O)c1c(C)cccc1C1CN=NC12Cc1cc(C)c(C)cc1C2=O (stereo not given) | 57.4 µM (inactive) | 25.4 µM (inactive) | 52.6 µM (inactive) | 27.4 µM (inactive) | 36.8 µM (inactive) | 24.2 µM (inactive) | 34.7 µM (inactive) | 44.5 µM (inactive) | 17.5 µM (inactive) | 31 µM (inactive) | 27.8 µM (inactive) | 37.8 µM (inactive) | 47.9 µM (inactive) | 41.6 µM (inactive) | 25.6 µM (inactive) | 40.6 µM (inactive) | 27.9 µM (inactive) | 29.9 µM (inactive) | – | 38.1 µM (inactive)
10 | CS(=O)(=O)OCCCSCCSCCCOS(C)(=O)=O | – | > 100 µM (inactive) | > 100 µM (inactive) | > 100 µM (inactive) | > 100 µM (inactive) | > 100 µM (inactive) | > 100 µM (inactive) | > 100 µM (inactive) | > 100 µM (inactive) | – | > 100 µM (inactive) | > 100 µM (inactive) | > 100 µM (inactive) | > 100 µM (inactive) | > 100 µM (inactive) | > 100 µM (inactive) | > 100 µM (inactive) | > 100 µM (inactive) | – | > 100 µM (inactive)
11 | COc1cc(/C=[N+](\[O-])c2ccccc2Cl)ccc1OC(=S)S | 34 µM (inactive) | 25.9 µM (inactive) | 37.1 µM (inactive) | 26.7 µM (inactive) | 42.5 µM (inactive) | 36.9 µM (inactive) | 38.2 µM (inactive) | 55.1 µM (inactive) | 20.1 µM (inactive) | 32.5 µM (inactive) | 39.8 µM (inactive) | – | 27.2 µM (inactive) | 38.5 µM (inactive) | 29 µM (inactive) | 30.9 µM (inactive) | 20.8 µM (inactive) | 28.5 µM (inactive) | 29.2 µM (inactive) | 18 µM (inactive)
12 | C=CC[C@H](C)CCC(=O)N1[C@H]2CC3CC[C@@]2(CS1(=O)=O)C3(C)C | 40.7 µM (inactive) | – | 79.8 µM (inactive) | 44.2 µM (inactive) | 18.8 µM (inactive) | 30.8 µM (inactive) | 40.3 µM (inactive) | 87.9 µM (inactive) | 25.1 µM (inactive) | 50.2 µM (inactive) | 39.8 µM (inactive) | 18.7 µM (inactive) | 30.5 µM (inactive) | 56.1 µM (inactive) | 79.8 µM (inactive) | 35.6 µM (inactive) | 47.2 µM (inactive) | 22.7 µM (inactive) | 39.9 µM (inactive) | –
13 | N#CC(C#N)=CNCCN1CCN(C=C(C#N)C#N)CC1 | > 100 µM (inactive) | > 100 µM (inactive) | > 100 µM (inactive) | > 100 µM (inactive) | > 100 µM (inactive) | > 100 µM (inactive) | > 100 µM (inactive) | > 100 µM (inactive) | > 100 µM (inactive) | > 100 µM (inactive) | > 100 µM (inactive) | – | > 100 µM (inactive) | > 100 µM (inactive) | > 100 µM (inactive) | > 100 µM (inactive) | > 100 µM (inactive) | > 100 µM (inactive) | > 100 µM (inactive) | –
14 | C=C1C2CC3CCC2C(OC(=O)c2ccccc2C(=O)O)C13 (stereo not given) | > 100 µM (inactive) | > 100 µM (inactive) | > 100 µM (inactive) | > 100 µM (inactive) | > 100 µM (inactive) | > 100 µM (inactive) | > 100 µM (inactive) | > 100 µM (inactive) | > 100 µM (inactive) | > 100 µM (inactive) | > 100 µM (inactive) | > 100 µM (inactive) | > 100 µM (inactive) | > 100 µM (inactive) | > 100 µM (inactive) | > 100 µM (inactive) | > 100 µM (inactive) | > 100 µM (inactive) | – | 3.1 µM (inactive)
15 | C[C@H]1[C@H](C)CC[C@]2(C)CC[C@]3(C)C(=C[C@@H](O)[C@@H]4[C@@]5(C)[C@H](O)[C@@H](O)[C@H](O)C(C)(C)[C@@H]5CC[C@]43C)[C@H]12 | > 100 µM (inactive) | > 100 µM (inactive) | > 100 µM (inactive) | > 100 µM (inactive) | > 100 µM (inactive) | > 100 µM (inactive) | > 100 µM (inactive) | > 100 µM (inactive) | > 100 µM (inactive) | > 100 µM (inactive) | > 100 µM (inactive) | > 100 µM (inactive) | > 100 µM (inactive) | > 100 µM (inactive) | > 100 µM (inactive) | > 100 µM (inactive) | > 100 µM (inactive) | > 100 µM (inactive) | 55.6 µM (inactive) | –

Reference: ChEMBL document CHEMBL1201862, “PubChem BioAssay data set” (2004)
